In patent US4581359A, “Pharmacological treatments with N-7-substituted derivatives of theophylline” (priority 1984, dated 1986):
Where “and” joins values, the source holds several entries; their conditions need not be identical. Equal entries are not always repeated. Where two headings read alike, the source gives them in different places.

Tests used:
[1] = cited from earlier work
[2] = Dyphylline 20 min intravenous infusion in two healthy male subjects: pharmacokinetics, blood pressure, pulse (Example 2); format: in vivo, human; details: for V2, volume of peripheral compartment: Vd - V1; for Css, steady state: infusion rate/V1 Ke1, predicted only; for half-life / k el / Vd: human, in vivo, iv, 1000 mg; for half-life: 0.693/β
Description: 1000 mg of the drug dyphylline was infused over twenty minutes in two heathy male patients to determine the volume of distribution of the central compartment.
A physician evaluated two male volunteer subjects for their drug and disease histories. […] The subjects fasted from 10:00 p.m. before dosing at 7:30 a.m. the following day until four hours post dosing, after which food (except xanthines; i.e. chocolate, tea, coffee) and beverages were allowed ad lib.
A dose of 1,000 mg of dyphylline (Neothylline®) diluted in normal saline (0.9 percent) was administered at a rate of 50 mg/min via a constant infusion pump for twenty minutes. Blood pressure and electrocardiogram readings were monitored by a physician.
Whole blood (7 cc) was collected from each subject at time zero just prior to dosing and at 10, 15, 20, 30, 40 minutes and 1.0, 1.5, 2.0, 3.0, 4.0, 5.0, 6.0, 7.0, 8.0, 12.0, and 16.0 hours post dosing with a syringe. The heparin lock was cleared of all heparin solution and the lock filled with subject blood by using a disposable syringe prior to sampling. Each sample was then collected in a new disposable syringe and immediately transferred to a heparinized vacuum tube. After each sampling, the heparin lock was flushed and filled with heparin (10 u/ml). Once samples had been transferred to vacuum tubes, they were inverted several times, then stored in crushed ice until centrifuged and the plasma collected. Plasma samples were then frozen until assayed.
Plasma and urine samples were assayed by high-pressure liquid chromatography (HPLC) as reported by Gisclon, in the article mentioned above.
Plasma samples were prepared for assay by mixing 0.5 ml of plasma with 0.5 ml of acetonitrile containing β-hydroxyethyltheophylline (40 mcg/ml) as internal standard, and vortexed 15 seconds. The plasma sample with its protein precipitate was then centrifuged for 15 minutes at 2800 rpm and 5-40 μl injected into the HPLC.
FIGS. 5 and 6 show dyphylline plasma concentration vs. time curves for the subjects. Solid circles are the data points which were obtained by duplicate analysis of each sample by different analysts and the solid line represents the predicted values obtained after fitting the data with an Autoan computer package which uses CSTRIP and NONLIN (John G. Wagner, Fundamentals of Clinical Pharmacokinetics, Drug Intelligence Publications,Inc., Hamilton, Ill., 1975). This program determined that the data from time zero to 480 min. (8 hr) for subject one and 420 min. (7 hr) for subject two were compatible with a two compartment open model with zero order infusion for 20 minutes and first order elimination from the central compartment only. The fit to the data was quite good with r^2 =0.996 for subject one and 0.997 for subject two. The average percent deviation for the predicted lines from the data points was 7.7 percent and the estimated concentrations averaged 98.9 percent of the observed concentrations.

[3] = Single and combined intravenous methyl xanthines in rabbits: heart rate, deaths, plasma concentrations (Example 6); format: in vivo, female rabbits; details: one rabbit each; normal about 220 bpm
Description: T 40 mg/kg of aminophylline infused at the rate of 0.21 ml/min over 30
T/D 40 mg/kg of aminophylline infused at the rate of 0.21 ml/min over 30
T/E 40 mg/kg of aminophylline infused at the rate of 0.21 ml/min over 30
T/P 40 mg/kg of aminophylline infused at the rate of 0.21 ml/min over 30

[4] = cited from earlier work; remark: listed apart in the source
[5] = Literature: pharmacokinetics of dyphylline and related derivatives in humans; details: human, in vivo, from Simons et al., read-out: Total Vd
Source text: Simons, et al., Allergy and Clin. Immunol. (1975) report the pharmacokinetics of dyphylline from seven different doses in seven patients and treat dyphylline as a one-compartment drug which means that Vc would be equal to Vd total since only one compartment is involved. This is, however, inconsistent with the data reported in the above-mentioned articles by Lawyer et al. Also, the data of Simons et al. (1975) can be used to generate the following lists wherein the estimated total volume of distribution of dyphylline (total Vd) is calculated from data presented by using the equation Vd=Dose/(Kel)(AUC): […]

[6] = cited from earlier work; remark: listed apart in the source
[7] = Concomitant dyphylline and aminophylline in two horses: plasma concentration, blood pressure, pulse (Example 3); details: horse, plasma, iv, 20 mg/kg, dyphylline peak plasma concentration, 20 mg/kg bolus
Description: Two horses were administered dyphylline and aminophylline concomitantly.
The second horse was given a bolus injection of dyphylline (20 mg/kg as 100 mg/ml solution in D5W) over 15 seconds into the jugular vein. Aminophylline infusion (10 mg/kg dissolved in one liter of D5W) was started immediately and administered over 20 minutes.

[8] = cited from earlier work; remark: listed apart in the source
[9] = Dyphylline 20 min intravenous infusion in two healthy male subjects: pharmacokinetics, blood pressure, pulse (Example 2); format: in vivo, human; details: bolus injection
[10] = cited from earlier work; remark: listed apart in the source
[11] = cited from earlier work; remark: listed apart in the source
[12] = intravenous, per day per 70 kg person, Zuidema

Cn1c(=O)c2c(ncn2CC(O)CO)n(C)c1=O (stereo not shown) [dyphylline, dihydroxypropyl theophylline]
pharmacokinetics at high dose ([1]; Poynor): may produce nonlinear pharmacokinetics
concentration not toxic in dogs ([1]; dogs): 100 µg/mL
adverse side effects ([2]; 1000 mg over 20 min, two subjects): No adverse side effects were observed or reported
Blood pressure, diastolic, Subject Two ([2]; 10 M, 15 M, 20 M (end), 30 M, 40 M, 60 M, 90 M, predose 125/80): 80 mm Hg and 85 mm Hg and 75 mm Hg
K12 ([2]; Subject 1, 1000 mg over 20 min): 1.94 h⁻¹
K21 ([2]; Subject 1, 1000 mg over 20 min): 2.50 h⁻¹
α ([2]; Subject 1, 1000 mg over 20 min): 4.73 h⁻¹
V2, volume of peripheral compartment ([2]; Subject 1): 30.28 L
Css, steady state ([2]; Subject 1): 142.56 µg/mL
K12 ([2]; Subject 2, 1000 mg over 20 min): 4.02 h⁻¹
K21 ([2]; Subject 2, 1000 mg over 20 min): 4.39 h⁻¹
α ([2]; Subject 2, 1000 mg over 20 min): 8.83 h⁻¹
V2, volume of peripheral compartment ([2]; Subject 2): 25.45 L
Css, steady state ([2]; Subject 2): 142.13 µg/mL
blood pressure and pulse rate ([2]; during the study): essentially unchanged
half-life ([2]; Subject 1): 127 min
k el ([2]; Subject 1, 1000 mg over 20 min, read-out: Ke1 (converted)): 0.000172 s⁻¹
k el ([2]; Subject 1, 1000 mg over 20 min, read-out: β (converted)): 9.17e-05 s⁻¹
Vd ([2]; Subject 1, read-out: V1): 33.9 L
Vd ([2]; Subject 1, read-out: V3 (footnote: Vd, total volume of distribution)): 64.2 L
half-life ([2]; Subject 2): 99.6 min
k el ([2]; Subject 2, 1000 mg over 20 min, read-out: Ke1 (converted)): 0.000233 s⁻¹
k el ([2]; Subject 2, 1000 mg over 20 min, read-out: β (converted)): 0.000117 s⁻¹
Vd ([2]; Subject 2, read-out: V1): 25.1 L
Vd ([2]; Subject 2, read-out: V3 (footnote: Vd, total volume of distribution)): 50.6 L
Vd ([2]; two subjects, range, read-out: volume of the central compartment per kg): 0.35 to 0.47 L/kg
Vd ([2]; two subjects, read-out: total volume of distribution, average): ~0.8 L/kg
Vd ([2]; two subjects, read-out: volume of the central compartment): 25 to 34 L
Vd ([2]; two subjects, read-out: volume of the central compartment, average): ~0.41 L/kg
heart rate, individual drug treatment [3]: 76 bpm
water solubility [4]: high water solubility
Vd ([5]; 10 mg/kg, 10 mg/kg alcoholic solution with glycerol-guaiacolate solution): 0.77 L/kg
Vd ([5]; 10 mg/kg, 10 mg/kg alcoholic solution): 0.98 L/kg
Vd ([5]; 10 mg/kg, 10 mg/kg aqueous): 0.93 L/kg
Vd/F ([5]; im, 5 mg/kg, 5 mg/kg intramuscular): 0.58 L/kg
Vd/F ([5]; im, 10 mg/kg, 10 mg/kg intramuscular): 0.8 L/kg
Vd/F ([5]; po, 5 mg/kg, 5 mg/kg tablet): 0.58 L/kg
Vd/F ([5]; po, 10 mg/kg, 10 mg/kg tablet): 0.72 L/kg
adverse effect ([6]; 400 mg intravenous, about 48 mcg/ml, Zuidema 1981): no adverse effect
plasma concentration ([6]; 400 mg intravenous, very short time, Zuidema 1981): about 48 mcg/ml
protein binding ([6]; Gisclon et al.): may bind nonlinearly to protein
intravenous dyphylline accounted for in the urine ([6]; Lawyer): forty-four
peak plasma concentration ([6]; intravenous over ten minutes, one patient, Lawyer): 17.4 µg/mL
conversion to theophylline in the body ([6]; literature): not converted to theophylline in the body
tissue distribution ([6]; literature): penetrate the central nervous system, to infiltrate heart tissue and to distribute to lung tissue
initial distribution volume ([6]; person, 73 kg, Lawyer): 26.2 L
total or steady state volume of distribution ([6]; person, 73 kg, Lawyer): 32.1 L
Cmax ([7]; first value, presumably first horse): 46 µg/mL
Cmax ([7]; second value, presumably second horse): 88 µg/mL
lowest therapeutic response toxic level in steady state ([8]; blood, calculated by Zuidema from data of Svedmyr): 90 µg/mL
calculated probable dosage to produce 40 mcg/ml in blood [8, 12]: 13.7 gm
calculated probable dosage to produce 90 mcg/ml in blood [8, 12]: 30.8 gm
half-time of clearance from the central compartment [9]: four to nine
time post dosing to achieve plasma concentrations ([10]; Joos et al.): 90 min
plasma concentration of dyphylline ([10]; combined with theophylline and proxyphylline (Bracher; Werdermann)): less than 3.0 mcg/ml
plasma concentration, each drug ([10]; dyphylline and proxyphylline (Joos et al.), 90 min): about 13 mcg/ml
average volume of distribution ([11]; 25 mg/kg): 1.01 L/kg
toxicity at 30 to 50 mcg/ml ([11]; rabbit, in vivo): not toxic
